# Source: patent publication US11932658B2 (BRISTOL-MYERS SQUIBB COMPANY, priority 2016, dated 2024)
# Target: T1, PAR4 (Homo sapiens, UniProt Q96RI0)
# T1 construct: expressed in transfected cells; host or cells: HEK293 PAR4 Clone 1.2A (BMS Arctic ID 383940)
# T1 sequence (Q96RI0 18-385): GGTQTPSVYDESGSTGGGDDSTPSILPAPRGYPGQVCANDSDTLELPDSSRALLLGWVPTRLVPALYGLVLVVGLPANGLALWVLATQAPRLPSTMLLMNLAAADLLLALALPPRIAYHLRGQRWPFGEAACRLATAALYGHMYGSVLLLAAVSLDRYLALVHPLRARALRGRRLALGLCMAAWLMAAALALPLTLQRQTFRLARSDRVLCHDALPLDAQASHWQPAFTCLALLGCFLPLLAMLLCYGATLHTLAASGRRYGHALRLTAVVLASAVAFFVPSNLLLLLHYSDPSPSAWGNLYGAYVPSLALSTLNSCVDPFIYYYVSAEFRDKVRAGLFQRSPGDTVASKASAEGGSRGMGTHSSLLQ
# Assay: PAR4 FLIPR assay (antagonism of agonist peptide-induced calcium mobilization)
# Type: cell-based
# Excerpt: The FLIPR assay is an exemplary in vitro assay for measuring the activity of the PAR4 antagonists of the present invention. In this assay, intracellular calcium mobilization is induced in PAR4 expressing cells by a PAR4 agonist and calcium mobilization is monitored.
# HEK293 cells stably expressing PAR4 were generated by a standard method of transfection of human PAR4 (F2R23) cDNA expression vector and selected based on PAR4 protein expression or mRNA expression. […] These cells also express endogenous PAR1 and can elicit calcium signal upon stimulation with PAR1 agonist peptide. Therefore, the same cells were also used to determine selectivity against PAR1 and agonist activity for both receptors. Cells from HEK293 PAR4 Clone 1.2A (BMS Arctic ID 383940) were propagated and used for calcium mobilization studies.
# FLIPR-based calcium mobilization assay in HEK293 cells was used to measure PAR4 antagonism, agonism, and selectivity against PAR1. The activity of the PAR4 antagonists of the present invention were tested in PAR4 expressing cells by monitoring H-Ala-Phe(4-F)-Pro-Gly-Trp-Leu-Val-Lys-Asn-Gy-NH2-induced intracellular calcium mobilization. Counter screens for agonist activity and PAR1 antagonist activity were also performed. Briefly, PAR1/PAR4-expressing HEK293 cells were grown in DMEM (Life Technology, Grand Island, NY) containing 10% heat-inactivated FBS, 1% Penicillin-Streptomycin, 10 μg/mL blasticidin, and 100 μg/mL Zeocin at 37° C. with 5% CO2. Cells were plated overnight prior to the experiment in a black 384-well Purecoat Amine clear bottom plate (Becton Dickinson Biosciences, San Jose, CA) at 10,000 cells/well in 30 μL growth medium and incubated in a humidified chamber at 37° C. with 5% CO2 overnight. Prior to compound addition, the cell medium was replaced with 40 μL of 1× calcium and magnesium-containing Hank's Balanced Saline Solution (HBSS) (with 20 mM HEPES) and 1:1000 diluted fluorescent calcium indicator (Codex Biosolutions, Gaithersburg, MD). After a 30 minute incubation period at 37° C. and a further 30 minute incubation and equilibration period at room temperature, 20 μL test compound (diluted in 1×HBSS buffer) was added at various concentrations at 0.17% dimethyl sulfoxide (DMSO) final concentration. Changes in fluorescence intensity were measured using a Functional Drug Screening System (FDSS, Hamamatsu, Japan) to determine agonist activities. The cells were then incubated for 30 minutes at room temperature followed by addition of 20 μL of agonist peptide for antagonist activity measurement. […] Compound potency was derived from 11-point concentration-response curves.
row,SMILES,IC50
1,COc1cnc2c(-c3nc4ccc5c(c4s3)C[C@@H](C(C)O)O5)cc(C)cc2n1 (mixture of isomers) [Example 190],24 nM
2,COc1cnc2c(-c3nc4cc(F)c5c(c4s3)[C@H](C)[C@H](CO)O5)cc(C)cc2n1 (relative stereo) [Example 199],71 nM
3,"COc1ccc(NC(=O)OC[C@@H]2COc3c(cc(Cl)c4nc(-c5cc(C)cc6nc(OC)cnc56)sc34)O2)cn1 (single isomer, unassigned) [Example 2]",130 nM
4,"COc1ccc(NC(=O)OC[C@H]2COc3c(cc(C)c4nc(-c5cc(C)cc6nc(OC)cnc56)sc34)O2)cn1 (single isomer, unassigned) [Example 4]",0.8 nM
5,"COc1cnc2c(-c3nc4c(C)cc5c(c4s3)OC[C@H](COC(=O)Nc3cccnc3)O5)cc(C)cc2n1 (single isomer, unassigned) [Example 5]",1.8 nM
6,"COc1cnc2c(-c3nc4c(Cl)cc5c(c4s3)C[C@H](COC(=O)Nc3ccc(C)nc3)O5)cc(C)cc2n1 (single isomer, unassigned) [Example 20]",3.2 nM
7,"COc1cnc2c(-c3nc4c(Cl)cc5c(c4s3)C[C@@H](COC(=O)Nc3ccc(C)nc3)O5)cc(C)cc2n1 (single isomer, unassigned) [Example 147]",14 nM
8,"COc1cnc2c(-c3nc4ccc5c(c4s3)C[C@@](C)(CO)O5)cc(C)cc2n1 (single isomer, unassigned) [Example 187]",1.7 nM
9,"COc1cnc2c(-c3nc4ccc5c(c4s3)C[C@](C)(CO)O5)cc(C)cc2n1 (single isomer, unassigned) [Example 188]",130 nM
10,"COc1cnc2c(-c3nc4cc(F)c5c(c4s3)[C@@H](C)[C@H](CO)O5)cc(C)cc2n1 (single isomer, unassigned) [Example 201]",7.8 nM
11,"COc1cnc2c(-c3nc4cc(F)c5c(c4s3)C(C)(C)[C@H](CO)O5)cc(C)cc2n1 (single isomer, unassigned) [Example 206]",370 nM
12,"COc1cnc2c(-c3nc4ccc5c(c4s3)C[C@@H]([C@@H](C)O)O5)cc(C)cc2n1 (single isomer, unassigned) [Example 243]",9.7 nM
13,"COc1cnc2c(-c3nc4c(C(O)C5(C(F)(F)F)CCC5)cc5c(c4s3)OCCO5)cc(C)cc2n1 (single isomer, unassigned) [Example 265, (2-(2-methoxy-7-methylquinoxalin-5-yl)-7,8-dihydro-[1,4]dioxino[2′,3′:3,4]benzo[1,2-d]thiazol-4-yl)(1-(trifluoromethyl)cyclobutyl)methanol]",1.9 nM
14,"COc1cnc2c(-c3nc4c(C(O)C(C)(C)C)cc5c(c4s3)OCCO5)cc(Cl)cc2c1 (single isomer, unassigned) [Example 274, 1-(2-(6-chloro-3-methoxyquinolin-8-yl)-7,8-dihydro-[1,4]dioxino[2′,3′:3,4]benzo[1,2-d]thiazol-4-yl)-2,2-dimethylpropan-1-ol]",5 nM
15,"COc1cnc2c(-c3nc4c(C(O)C(C)(C)C)cc5c(c4s3)OCCO5)cc(C)cc2n1 (single isomer, unassigned) [Example 277, 1-(2-(2-methoxy-7-methylquinoxalin-5-yl)-7,8-dihydro-[1,4]dioxino[2′,3′:3,4]benzo[1,2-d]thiazol-4-yl)-2,2-dimethylpropan-1-ol]",2.3 nM
16,"COc1ccc(NC(=O)OC[C@H]2COc3c(cc(Cl)c4nc(-c5cc(C)cc6nc(OC)cnc56)sc34)O2)cn1 [Example 1, (R)-(4-chloro-2-(2-methoxy-7-methylquinoxalin-5-yl)-7,8-dihydro-[1,4]dioxino[2′,3′:3,4]benzo[1,2-d]thiazol-7-yl)methyl (6-methoxypyridin-3-yl)carbamate]",1.6 nM
17,"COc1cnc2c(-c3nc4c(C)cc5c(c4s3)OCC(COC(=O)Nc3ccnc(O)c3)O5)cc(C)cc2n1 (centres unmarked) [Example 3, (2-(2-methoxy-7-methylquinoxalin-5-yl)-4-methyl-7,8-dihydro-[1,4]dioxino[2′,3′:3,4]benzo[1,2-d]thiazol-7-yl)methyl (2-hydroxypyridin-4-yl)carbamate]",12 nM
